# From PMC12040169 (PLOS Biology, 2025)
# Test: in vitro
# Details: human, hela cells, % viability
row,Structure (SMILES),"viability at 28.5 h, 10 µM [%]"
1,CC1CCN(C(=O)Cn2c(=O)n(C(C)C)c3ncccc32)CC1 [CBK283698],89.5
2,CC(C)n1c(=O)n(CC(=O)NCCc2ccccc2)c2cccnc21 [CBK283701],94.8
3,O=C(c1cc2c(s1)CCC2)N1CCc2c(nc[nH]c2=O)C1 [CBK283703],101
4,O=C(Cc1ccccc1F)NCCn1nc(-c2ccco2)ccc1=O [CBK283705],96.9
5,O=C(Cc1ccc(F)cc1)NCCn1nc(-c2ccco2)ccc1=O [CBK283706],86.4
6,O=C(Cc1cccc(F)c1)NCCn1nc(-c2ccco2)ccc1=O [CBK283708],86.3
7,O=C(CN1Cc2ccccc2C1)N1CCCC1c1nc2ccccc2[nH]1 (stereo not drawn) [CBK283710],87.9
8,O=C(CCc1ccco1)N1CCCCC1c1nc2ccccc2[nH]1 (stereo not drawn) [CBK283711],99.9
9,CN(C)c1cccc(C(=O)N2CC[C@@H](c3ccccc3)[C@H](O)C2)c1 [CBK283713],91.6
10,Cc1ccc2c(c1)C(=O)CC1(CCN(C(=O)C3CCCC3)CC1)O2 [CBK283718],85
11,COC(=O)[C@H]1CN(C(=O)c2cn(C)nc2C)C[C@@H]1c1ccc(F)cc1 [CBK283720],96.6
12,O=C(Cn1c2ccccc2c2ccccc21)N1CCn2cnnc2C1 [CBK283724],88.2
13,COC(=O)[C@@H]1CN(C(=O)c2cccs2)C[C@H]1c1ccc(OC)cc1 [CBK283725],87.1
14,O=c1oc(-c2ccoc2)nn1Cc1ccccc1F [CBK283726],98.5
15,COC(=O)[C@H]1CN(C(=O)c2ccccn2)C[C@@H]1c1ccc(F)cc1 [CBK283727],101
16,Cc1nn2c(O)c3c(nc2c1-c1cccs1)CCC3 [CBK283729],85.7
17,COc1ccc(C2(NC(=O)c3cnn(C)c3C)CCCCC2)cc1 [CBK283731],84.8
18,COC(=O)[C@H]1CN(C(=O)c2ccco2)C[C@@H]1c1ccc(F)cc1 [CBK283733],85.8
19,O=C(O)[C@H]1CN(C(=O)c2cccs2)C[C@@H]1c1ccc(F)cc1 [CBK283734],98.1
20,O=C(O)[C@H]1CN(C(=O)c2ccco2)C[C@@H]1c1ccc(F)cc1 [CBK283735],105
21,CCn1c(C(CC(C)C)NC(=O)C2CC2)nc2cccnc21 (stereo not drawn) [CBK283736],103
22,O=C(c1ccc(=O)[nH]n1)N1C2CCC1CC(c1ccc(F)cc1)C2 (stereo not drawn) [CBK283737],94.4
23,Cc1noc(C)c1C(=O)N1C2CCC1CC(c1ccc(F)cc1)C2 (stereo not drawn) [CBK283738],102
24,Cc1nonc1CC(=O)N1C2CCC1CC(c1ccc(F)cc1)C2 (stereo not drawn) [CBK283739],89.1

row,Structure (SMILES),"viability at 28.5 h, 10 µM [%]"
1,O=C(Cc1ccsc1)N1CCCC1c1nc2ccccc2[nH]1 (stereo not drawn) [CBK283740],87.7
2,Cc1oc(C2CC2)cc1C(=O)N1CCCC1c1nc2ccccc2[nH]1 (stereo not drawn) [CBK283741],88.1
3,O=C(NCCn1nc(-c2ccco2)ccc1=O)C1CCCCC1 [CBK283743],105
4,CCn1c(/C=C/C2=CCN(C)CC2)nc2ccccc21 [CBK283745],91.8
5,CN(C)C(=O)Cn1nc(C(c2ccccc2)c2ccccc2)oc1=O [CBK283747],92.6
6,CCc1nn(CC(=O)N2CCCC2)c(=O)c2cc3occc3n12 [CBK283748],93.3
7,CCn1cc(C(=O)NC2(c3cccc(OC)c3)CCCC2)cn1 [CBK283750],101
8,COc1ccc([C@@H]2CCN(C(=O)Cc3ccccc3F)C[C@H]2O)cc1 [CBK283756],100
9,CN(C)C(=O)Cn1nc(-c2cccc(-n3cccc3)c2)oc1=O [CBK283759],103
10,CCOC(=O)c1[nH]c(C)c(/C=C/C2=CCN(C)CC2)c1C [CBK283761],99.3
11,O=C(c1cccnc1)N1C2CCC1CC(c1ccc(F)cc1)C2 (stereo not drawn) [CBK283762],98.3
12,O=C(c1ccncc1)N1C2CCC1CC(c1ccc(F)cc1)C2 (stereo not drawn) [CBK283763],94.3
13,COc1ccc2cc(C)c3n[nH]c(=O)n3c2c1 [CBK283765],89
14,COc1ccc2c(c1)cc(C)c1n[nH]c(=O)n12 [CBK283766],76.7
15,CCC(C(=O)N1CCC(O)(c2ccccn2)CC1)c1ccccc1 (stereo not drawn) [CBK283768],93.1
16,CN1CC(C(=O)N2C3CCC2CC(c2ccc(F)cc2)C3)CC1=O (stereo not drawn) [CBK283769],96.3
17,O=C(c1cc2c(s1)CCC2)N1CCn2c(nnc2C2CC2)C1 [CBK283770],96.6
18,O=c1oc(-c2cccnc2)nn1Cc1ccccc1F [CBK283774],87.1
19,COC(=O)[C@H]1CN(C(=O)c2cccs2)C[C@@H]1c1ccccc1F [CBK283775],87.4
20,CCn1cc(C(=O)N2CCCC2c2nc3ccccc3[nH]2)c(C)n1 (stereo not drawn) [CBK283777],90.2
21,CCn1cc(C(=O)N2CCCCC2c2nc3ccccc3[nH]2)c(C)n1 (stereo not drawn) [CBK283778],91.5
22,Cc1nn(C)cc1C(=O)N1CCCCC1c1nc2ccccc2[nH]1 (stereo not drawn) [CBK283779],84.7
23,Fc1cccc(-c2nc3cnccn3c2NC2CCCC2)c1 [CBK283780],81.4
24,Cn1ccnc1C(NC(=O)N1CCCC1)c1ccc(F)c(F)c1 (stereo not drawn) [CBK283782],89

row,Structure (SMILES),"viability at 28.5 h, 10 µM [%]"
1,Cn1ccnc1C(NC(=O)C1CCCC1)c1ccc(F)c(F)c1 (stereo not drawn) [CBK283784],97
2,COC(=O)[C@H]1CN(C(=O)c2cscn2)C[C@@H]1c1ccc(F)cc1 [CBK283785],92.3
3,Cn1c(=O)n(CC(=O)N2CCCc3ccccc32)c2cccnc21 [CBK283790],86.7
4,CN(C(=O)Cn1c(=O)n(C)c2ncccc21)C1CCCCC1 [CBK283791],81.5
5,CC1CC(C)CN(C(=O)Cn2c(=O)n(C)c3ncccc32)C1 (stereo not drawn) [CBK283794],93.8
6,Cn1c(=O)n(CC(=O)NC23CC4CC(CC(C4)C2)C3)c2cccnc21 [CBK283795],81.7
7,CCn1nc2c(C)cc3ccc(OC)cc3n2c1=O [CBK283796],78.3
8,O=C(c1cccc2ncccc12)N1CCC(c2ccncc2)CC1 [CBK283798],84.2
9,O=C(Cn1nc(-c2cc3c(s2)CCC3)oc1=O)NC1CC1 [CBK283800],101
10,O=C(NC1CC2(CCCC2)Oc2ccccc21)C1CCOC1 (stereo not drawn) [CBK283802],84.3
11,CN1CCC2(CC1)CC(NC(=O)c1ccco1)c1ccccc1O2 (stereo not drawn) [CBK283804],96.6
12,COc1ccccc1CC(=O)N1CCn2cc(C(F)(F)F)nc2C1 [CBK283806],84.5
13,CCn1c(=O)n(CC(=O)NC2CCCCC2)c2cccnc21 [CBK283810],83.6
14,CCn1c(=O)n(CC(=O)NCCc2ccccc2)c2cccnc21 [CBK283812],76.1
15,O=C(c1cccnc1)C1CCN(C(=O)Cc2ccc(Cl)cc2)CC1 [CBK283813],80.4
16,O=C(c1cccnc1)C1CCN(C(=O)Cc2ccccc2F)CC1 [CBK283814],87.5
17,Cc1occc1-c1nn(CCN2CCCCC2)c(=O)o1 [CBK283815],96.8
18,Cc1cccc2cc3c(nc12)OCC(=O)N(Cc1ccco1)C3 [CBK283816],97.6
19,COc1ccc2c(c1)C=C(/C=C/C1=CCN(C)CC1)CO2 [CBK283818],81.1
20,O=C(O)[C@H]1CN(C(=O)c2cccs2)C[C@@H]1c1ccccc1F [CBK283819],87.1
21,O=C(O)[C@H]1CN(C(=O)c2ccco2)C[C@@H]1c1ccccc1F [CBK283820],80.6
22,Cc1cc(C)c2cc(C)c3nn(CC(=O)N(C)C)c(=O)n3c2c1 [CBK283821],81.8
23,CCn1c(=O)n(CC(=O)NCc2ccccc2)c2cccnc21 [CBK283824],101
24,CCn1c(=O)n(CC(=O)N2C(C)CCCC2C)c2cccnc21 (stereo not drawn) [CBK283825],102

row,Structure (SMILES),"viability at 28.5 h, 10 µM [%]"
1,CC(C)CC(NC(=O)c1ccco1)c1nc2cccnc2n1C (stereo not drawn) [CBK283827],88.8
2,CC(NC(=O)Cc1ccc(F)cc1)c1nc2cccnc2n1C(C)C (stereo not drawn) [CBK283830],88.7
3,Cn1ccnc1C(NC(=O)N1CCCCC1)c1ccc(F)c(F)c1 (stereo not drawn) [CBK283832],107
4,O=C(CC1CC2CCC1C2)N1CCC(O)(c2ccccn2)CC1 (stereo not drawn) [CBK283833],92.7
5,O=C(NCCn1nc(-c2cccs2)ccc1=O)c1cccs1 [CBK283836],77
6,CC(C)(C)C(=O)NCCn1nc(-c2cccs2)ccc1=O [CBK283839],103
7,O=C(NCCn1nc(-c2cccs2)ccc1=O)C1CCCC1 [CBK283840],104
8,CCCNC(=O)Cn1c(=O)n(Cc2cccs2)c2ncccc21 [CBK283843],101
9,CC(C)(C)NC(=O)Cn1c(=O)n(Cc2cccs2)c2ncccc21 [CBK283844],104
10,CC(NC(=O)c1ncoc1-c1ccc(F)cc1)c1ccccn1 (stereo not drawn) [CBK283846],90.9
11,Cc1nn(Cc2ccccn2)c(=O)n2cccc12 [CBK283849],95.1
12,O=C(Cn1ncc2cccn2c1=O)NCc1ccc(F)cc1 [CBK283851],82.8
13,O=C(c1cccnc1)C1CCN(C(=O)c2ccccc2F)CC1 [CBK283853],95.1
14,O=c1[nH]nc(-c2cccs2)n1-c1cccnc1 [CBK283854],101
15,CC(C)n1c(=O)n(CC(=O)N2CCc3ccccc32)c2cccnc21 [CBK283855],103
16,CCc1nn2c(O)cc(C)nc2c1-c1cccs1 [CBK283860],90.7
17,O=C(Cn1c(=O)n(Cc2ccco2)c2ncccc21)N1CCCCC1 [CBK283862],89.2
18,O=C(CC1CCCC1)NCCn1nc(-c2ccco2)ccc1=O [CBK283864],106
19,O=c1[nH]nc(-c2cccs2)n1-c1ccncc1 [CBK283868],93.2
20,CCN(CC)C(=O)Cn1nc2c(C)cc3cc(C)ccc3n2c1=O [CBK283871],86.4
21,Cc1ccc2c(c1)cc(C)c1nn(CC(=O)N3CCCC3)c(=O)n12 [CBK283872],101
